EP0350012A2, “Antiviral composition” (MEIJI SEIKA KAISHA LTD., priority 1988, dated 1990)
Values after ≈ are worked out from the molar mass of the structure shown. Read-outs that look alike come from different tables or passages of the source.

Key:
[1] = tested on: Molt-4 cells and Molt-4/HIV cells; assay: cells; type: cell-based; details: for 50% Inhibitory Concentration (IC₅₀): giant cell formation inhibition, as indicated in Example 4
Description: After a test drug was dissolved in methanol medium for tissue culture was added to the solution to make a definite concentration. The concentration of methanol was finally adjusted to less than 2 %. HIV persistent injection Molt-4 cells (Molt-4/HIV cells) were precultured for 24 hours in the presence of the compound. The precultured Molt-4/HIV cells were mixed with HIV-non-infected Molt-4 cells, whereby the compound was prepared to have the same concentration as that of the preculture. The mixture was then cultured. Giant cell formation was compared between chemically intact control cells and the group to which the compound has been added 5 and 20 hours after mixing the culture to evaluate the effect of the chemical. The evaluation was made based on the method of Yamamoto et al. (Virology, 164, 542 - 546, 1988). The evaluation effect is shown in Table 1 in terms of fusion index.

mice = assay: Acute toxicity test, oral administration to mice; type: in vivo; details: 4g/kg administered orally, 3 mice in each group
From the text: The compounds of the present invention have low toxicity.

[2] = Homo sapiens, MOLT-4, 20 h, read-out: Giant cell formation inhibitory rate (%)
[3] = Homo sapiens, MOLT-4, read-out: 50 % of inhibitory concentration (IC₅₀ value) of the giant cell formation inhibition
[4] = Homo sapiens, MOLT-4, read-out: 50% Inhibitory Concentration (IC₅₀)
[5] = 12.5 µg/ml, mixed culture 5 hours
[6] = 12.5 µg/ml, mixed culture 20 hours
[7] = 25 µg/ml, mixed culture 5 hours
[8] = 25 µg/ml, mixed culture 20 hours
[9] = 50 µg/ml, mixed culture 5 hours
[10] = 50 µg/ml, mixed culture 20 hours
[11] = Homo sapiens, MOLT-4, 5 h, read-out: Giant cell formation inhibitory rate (%)
[12] = 100 µg/ml, mixed culture 5 hours
[13] = 100 µg/ml, mixed culture 20 hours
[14] = 200 µg/ml, mixed culture 5 hours
[15] = 200 µg/ml, mixed culture 20 hours

In the case of `OC[C@@H]1[C@@H](O)[C@H](O)[C@@H](O)CN1CC=Cc1cccc(F)c1` [Example 4, N-[3-(3-fluorophenyl) 2-propenyl]-1-deoxynojirimycin], the Fusion index ([1]; 2.5 µg/ml, mixed culture 20 hours) is reported as 1.38, the Fusion index ([1]; 5 µg/ml, mixed culture 20 hours) is reported as 1.04 and the Fusion index ([1]; 10 µg/ml, mixed culture 20 hours) is reported as 0.52. For the same molecule, the Fusion index ([1]; 20 µg/ml, mixed culture 20 hours) was 0.32, the Fusion index ([1]; 40 µg/ml, mixed culture 20 hours) was 0.01 and the inhibition at 2.5 µg/mL [1, 2] was 28%. The inhibition at 5 µg/mL [1, 2] was 46%, the inhibition at 10 µg/mL [1, 2] was 73% and the inhibition at 20 µg/mL [1, 2] was 83%. It also gave an inhibition at 40 µg/mL [1, 2] of 99% and an IC50 [1, 3] of 5 to 10 µg/mL (≈ 16.8 to 33.6 µM).

With `OC[C@@H]1[C@@H](O)[C@H](O)[C@@H](O)CN1CC=C(c1ccc(F)cc1)c1ccc(F)cc1` [Example 9, N-[3,3-Di(4-fluorophenyl)-2-propenyl]-1-deoxynojirimycin] the “50% Inhibitory Concentration (IC₅₀)” value [1] was >100 µg/mL.

With `OC[C@@H]1[C@@H](O)[C@H](O)[C@@H](O)CN1CCC=Cc1ccc(Cl)cc1` [Example 8, N-[4-(4-Chlorophenyl)-3-butenyl]-1-deoxynojirimycin] the “50% Inhibitory Concentration (IC₅₀)” value [1] was 70 µg/mL.

Work on `OC[C@@H]1[C@@H](O)[C@H](O)[C@@H](O)CN1CCOc1ccccc1` [Control, N-(2-Phenoxyethyl)-1-deoxynojirimycin, reference compound] yielded an IC50 [1, 4] of 20 to 40 µg/mL (≈ 70.6 to 141 µM).

With `OC[C@@H]1[C@@H](O)[C@H](O)[C@@H](O)CN1CCC=Cc1ccccc1F` [Example 14, N-[4-(2-Fluorophenyl)-3-butenyl]-1-deoxynojirimycin] the IC50 [1, 4] was 5 to 10 µg/mL (≈ 16.1 to 32.1 µM).

Molecule `OC[C@@H]1[C@@H](O)[C@H](O)[C@@H](O)CN1CCC(c1ccccc1)c1ccccc1` [Example 3, N-(3,3-diphenyl-propyl)-1-deoxynojirimycin] has a Fusion index ([1]; 3.13 µg/ml, mixed culture 5 hours) of 0.26, a Fusion index ([1]; 3.13 µg/ml, mixed culture 20 hours) of 1.50 and a Fusion index ([1]; 6.25 µg/ml, mixed culture 5 hours) of 0.54. For the same molecule, the Fusion index ([1]; 6.25 µg/ml, mixed culture 20 hours) was 2.16, the Fusion index [1, 5] was 0.26 and the Fusion index [1, 6] was 1.37. It also gave a Fusion index [1, 7] of 0.50, a Fusion index [1, 8] of 0.89 and a Fusion index [1, 9] of 0.32. It also gave a Fusion index [1, 10] of 0.62, an inhibition at 3.13 µg/mL [1, 11] of 51.9% and an inhibition at 6.25 µg/mL [1, 11] of 0%. It also gave an inhibition at 12.5 µg/mL [1, 11] of 51.9%, an inhibition at 25 µg/mL [1, 11] of 7.4% and an inhibition at 50 µg/mL [1, 11] of 40.7%. The inhibition at 3.13 µg/mL [1, 2] was 21.1%, the inhibition at 6.25 µg/mL [1, 2] was 0% and the inhibition at 12.5 µg/mL [1, 2] was 27.9%. The inhibition at 25 µg/mL [1, 2] was 53.2% and the inhibition at 50 µg/mL [1, 2] was 67.4%.

`OC[C@@H]1[C@@H](O)[C@H](O)[C@@H](O)CN1CCCc1ccc(F)cc1` [Example 11, N-[3-(4-Fluorophenyl)-propyl]-1-deoxynojirimycin] was tested, and the IC50 [1, 4] was 5 to 10 µg/mL (≈ 16.7 to 33.4 µM).

With `OC[C@@H]1[C@@H](O)[C@H](O)[C@@H](O)CN1CCCCc1ccccc1` [Example 5, N-(4-Phenylbutyl)-1-deoxynojirimycin] the IC50 [1, 4] was 5 to 10 µg/mL (≈ 16.9 to 33.9 µM).

`OC[C@@H]1[C@@H](O)[C@H](O)[C@@H](O)CN1CCCCC(F)(F)F` [Example 16, N-(5,5,5-Trifluoropentyl)-1-deoxynojirimycin] was tested, and the IC50 [1, 4] was 2.5 to 5 µg/mL (≈ 8.7 to 17.4 µM).

For `OC[C@@H]1[C@@H](O)[C@H](O)[C@@H](O)CN1CC=Cc1ccccc1F` [Example 13, N-[3-(2-Fluorophenyl)-2-propenyl]-1-deoxynojirimycin], the IC50 [1, 4] was 2.5 to 5 µg/mL (≈ 8.41 to 16.8 µM).

For `OC[C@@H]1[C@@H](O)[C@H](O)[C@@H](O)CN1CC=Cc1cccc(Cl)c1` [Example 6, N-[3-(3-Chlorophenyl)-2-propenyl]-1-deoxynojirimycin], the “50% Inhibitory Concentration (IC₅₀)” value [1] was 50 µg/mL.

In the case of `OC[C@@H]1[C@@H](O)[C@H](O)[C@@H](O)CN1CCCC(F)(F)F` [Example 15, N-(4,4,4-Trifluorobutyl)-1-deoxynojirimycin], the IC50 [1, 4] is reported as 5 to 10 µg/mL (≈ 18.3 to 36.6 µM).

`OC[C@@H]1[C@@H](O)[C@H](O)[C@@H](O)CN1CC=Cc1ccc(F)cc1` [Example 12, N-[3(4-Fuluorophenyl)-2-propenyl]-1-deoxynojirimycin] was tested, and the “50% Inhibitory Concentration (IC₅₀)” value [1] was 10 µg/mL.

For `OC[C@@H]1[C@@H](O)[C@H](O)[C@@H](O)CN1CC=Cc1ccccc1` [Example 2, N-(3-phenyl-2-propenyl)-1-deoxynojirimycin], the Fusion index [1, 5] was 0.14, the Fusion index [1, 6] was -0.03 and the Fusion index [1, 7] was 0.17. It also gave a Fusion index [1, 8] of -0.08, a Fusion index [1, 9] of 0.06 and a Fusion index [1, 10] of -0.07. It also gave a Fusion index [1, 12] of -0.10, a Fusion index [1, 13] of 0.10 and a Fusion index [1, 14] of -0.08. It also gave a Fusion index [1, 15] of 0.10, an inhibition at 12.5 µg/mL [1, 11] of 74.1% and an inhibition at 25 µg/mL [1, 11] of 68.5%. The inhibition at 50 µg/mL [1, 11] was 88.9%, the inhibition at 100 µg/mL [1, 11] was 100% and the inhibition at 200 µg/mL [1, 11] was 100%. For the same molecule, the inhibition at 12.5 µg/mL [1, 2] was 100%, the inhibition at 25 µg/mL [1, 2] was 100% and the inhibition at 50 µg/mL [1, 2] was 100%. It also gave an inhibition at 100 µg/mL [1, 2] of 94.7%, an inhibition at 200 µg/mL [1, 2] of 94.7% and an IC50 [1, 3] of 2.5 to 5 µg/mL (≈ 8.95 to 17.9 µM). The “giant cell formation inhibiting effect” value ([1]; Table 2) was 90-100% and the “survival in the acute toxicity test” value (mice) was “all of the tested mice survived”.

`Cc1ccc(CCCN2C[C@H](O)[C@@H](O)[C@H](O)[C@H]2CO)cc1` [Example 10, N-[3-(4-Methylphenyl)-propyl]-1-deoxynojirimycin] showed an IC50 [1, 4] of 5 to 10 µg/mL (≈ 16.9 to 33.9 µM).

In the case of `OC[C@@H]1[C@@H](O)[C@H](O)[C@@H](O)CN1CCCc1ccccc1` [Example 1, N-(3-phenylpropyl)-1-deoxynojirimycin], the Fusion index [1, 5] is reported as 0.11, the Fusion index [1, 6] is reported as 0.34 and the Fusion index [1, 7] is reported as -0.07. It also gave a Fusion index [1, 8] of 0.18, a Fusion index [1, 9] of 0.19 and a Fusion index [1, 10] of 0.13. For the same molecule, the Fusion index [1, 12] was 0, the Fusion index [1, 13] was 0.05 and the Fusion index [1, 14] was 0.23. The Fusion index [1, 15] was 0.18, the “effect of inhibiting the formation of giant cells” value ([1]; 20 hours after mixing the culture) was “about 90%” and the inhibition at 12.5 µg/mL [1, 11] was 79.6%. For the same molecule, the inhibition at 25 µg/mL [1, 11] was 100%, the inhibition at 50 µg/mL [1, 11] was 64.8% and the inhibition at 100 µg/mL [1, 11] was 100%. It also gave an inhibition at 200 µg/mL [1, 11] of 57.4%, an inhibition at 12.5 µg/mL [1, 2] of 82.1% and an inhibition at 25 µg/mL [1, 2] of 90.5%. For the same molecule, the inhibition at 50 µg/mL [1, 2] was 93.2%, the inhibition at 100 µg/mL [1, 2] was 97.4% and the inhibition at 200 µg/mL [1, 2] was 90.5%. The IC50 [1, 3] was 5 to 10 µg/mL (≈ 17.8 to 35.5 µM) and the “microscopic observation of giant cell formation” value ([1]; compared to the control cells) was “clearly inhibited the formation of giant cells”.

`OC[C@@H]1[C@@H](O)[C@H](O)[C@@H](O)CN1CC=Cc1ccccc1Cl` [Example 7, N-[3-(2-Chlorophenyl)-2-propenyl]-1-deoxynojirimycin] was tested, and the “50% Inhibitory Concentration (IC₅₀)” value [1] was 60 µg/mL.
